Assay results from PubChem BioAssay AID2060512 (Molecular Pharmacology Branch, DTP, NCI, 2025).

System: 186277-243-T-J2-PDC complex spheroid viability
Test: Anticancer human tumor 186277-243-T-J2-PDC patient-derived colon adenocarcinoma cell line growth inhibition [GQUAD]
Details: for IC50: curve of first compound; for viability, T/C: stronger effect = lower value
Method in brief: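 Tumor cells were grown as complex spheroids with HUVEC endothelial cells and mesenchymal stem cells as stroma. G-quadruplex stabilizers were combined with targeted agents over half-log dilutions from near the clinical Cmax, or from 10 microM.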

[1] = second compound 0.0316 µM, first compound 0.0316 µM
[2] = second compound 0.0316 µM, first compound 0.1 µM
[3] = second compound 0.0316 µM, first compound 0.316 µM
[4] = second compound 0.0316 µM, first compound 1 µM
[5] = second compound 0.0316 µM, first compound 3.16 µM
[6] = second compound 0.0316 µM, first compound 10 µM
[7] = second compound 0.1 µM, first compound 0.0316 µM
[8] = second compound 0.1 µM, first compound 0.1 µM
[9] = second compound 0.1 µM, first compound 0.316 µM
[10] = second compound 0.1 µM, first compound 1 µM
[11] = second compound 0.1 µM, first compound 3.16 µM
[12] = second compound 0.1 µM, first compound 10 µM
[13] = second compound 0.316 µM, first compound 0.0316 µM
[14] = second compound 0.316 µM, first compound 0.1 µM
[15] = second compound 0.316 µM, first compound 0.316 µM
[16] = second compound 0.316 µM, first compound 1 µM
[17] = second compound 0.316 µM, first compound 3.16 µM
[18] = second compound 0.316 µM, first compound 10 µM
[19] = second compound 1 µM, first compound 0.0316 µM
[20] = second compound 1 µM, first compound 0.1 µM
[21] = second compound 1 µM, first compound 0.316 µM
[22] = second compound 1 µM, first compound 1 µM
[23] = second compound 1 µM, first compound 3.16 µM
[24] = second compound 1 µM, first compound 10 µM
[25] = second compound 3.16 µM, first compound 0.0316 µM
[26] = second compound 3.16 µM, first compound 0.1 µM
[27] = second compound 3.16 µM, first compound 0.316 µM
[28] = second compound 3.16 µM, first compound 1 µM
[29] = second compound 3.16 µM, first compound 3.16 µM
[30] = second compound 3.16 µM, first compound 10 µM
[31] = second compound 10 µM, first compound 0.0316 µM
[32] = second compound 10 µM, first compound 0.1 µM
[33] = second compound 10 µM, first compound 0.316 µM
[34] = second compound 10 µM, first compound 1 µM
[35] = second compound 10 µM, first compound 3.16 µM
[36] = second compound 10 µM, first compound 10 µM
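Further: spheroids exposed to drugs for 7 days.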
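Wherever viability, T/C is given: 100% = DMSO vehicle control viability.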

Compound: COc1ccc([C@@H](O)c2cc(-c3ncnc4cc(N5CCOCC5)ccc34)c(F)cc2Cl)nn1 + Cc1cnc(CNC(=O)c2c(=O)c3ccc(N4CCCN(C)CC4)nc3n3c2sc2ccccc23)cn1
- IC50 (second compound 0.0316 µM): 1880 nM
- IC50 (second compound 0.1 µM): 1370 nM
- IC50 (second compound 0.316 µM): 708 nM
- IC50 (second compound 1 µM): 397 nM
- IC50 (second compound 3.16 µM): 129 nM
- IC50 (second compound 10 µM): < 31.6 nM
- viability, T/C [1]: 94.7%
- viability, T/C [2]: 100%
- viability, T/C [3]: 97.5%
- viability, T/C [4]: 59%
- viability, T/C [5]: 42.5%
- viability, T/C [6]: 17.5%
- viability, T/C [7]: 86.7%
- viability, T/C [8]: 81.3%
- viability, T/C [9]: 69.9%
- viability, T/C [10]: 56.6%
- viability, T/C [11]: 34.8%
- viability, T/C [12]: 14.3%
- viability, T/C [13]: 72.3%
- viability, T/C [14]: 67%
- viability, T/C [15]: 60.4%
- viability, T/C [16]: 42.8%
- viability, T/C [17]: 32.3%
- viability, T/C [18]: 7.31%
- viability, T/C [19]: 55.5%
- viability, T/C [20]: 61.1%
- viability, T/C [21]: 55.8%
- viability, T/C [22]: 34.9%
- viability, T/C [23]: 23.5%
- viability, T/C [24]: 6.14%
- viability, T/C [25]: 57.2%
- viability, T/C [26]: 49.1%
- viability, T/C [27]: 45.6%
- viability, T/C [28]: 34.2%
- viability, T/C [29]: 26.6%
- viability, T/C [30]: 5.25%
- viability, T/C [31]: 46.4%
- viability, T/C [32]: 42.2%
- viability, T/C [33]: 45%
- viability, T/C [34]: 34.5%
- viability, T/C [35]: 22.2%
- viability, T/C [36]: 4.67%

Compound: C=CCn1c(=O)c2cnc(Nc3ccc(N4CCN(C)CC4)cc3)nc2n1-c1cccc(C(C)(C)O)n1 + Cc1cnc(CNC(=O)c2c(=O)c3ccc(N4CCCN(C)CC4)nc3n3c2sc2ccccc23)cn1
- IC50 (second compound 0.0316 µM): 117 nM
- IC50 (second compound 0.1 µM): < 31.6 nM
- IC50 (second compound 0.316 µM): 35.1 nM
- IC50 (second compound 1 µM): < 31.6 nM
- IC50 (second compound 3.16 µM): < 31.6 nM
- IC50 (second compound 10 µM): < 31.6 nM
- viability, T/C [1]: 93.8%
- viability, T/C [2]: 54.3%
- viability, T/C [3]: 22%
- viability, T/C [4]: 10.2%
- viability, T/C [5]: 12.2%
- viability, T/C [6]: 15.5%
- viability, T/C [7]: 49.1%
- viability, T/C [8]: 44.2%
- viability, T/C [9]: 25.8%
- viability, T/C [10]: 14.7%
- viability, T/C [11]: 13.8%
- viability, T/C [12]: 20.5%
- viability, T/C [13]: 51.8%
- viability, T/C [14]: 46.4%
- viability, T/C [15]: 33.5%
- viability, T/C [16]: 17.6%
- viability, T/C [17]: 17.8%
- viability, T/C [18]: 24.1%
- viability, T/C [19]: 27.7%
- viability, T/C [20]: 35.9%
- viability, T/C [21]: 30.5%
- viability, T/C [22]: 24.4%
- viability, T/C [23]: 23.5%
- viability, T/C [24]: 26.4%
- viability, T/C [25]: 34.5%
- viability, T/C [26]: 31.7%
- viability, T/C [27]: 34.5%
- viability, T/C [28]: 21.9%
- viability, T/C [29]: 23.4%
- viability, T/C [30]: 22.6%
- viability, T/C [31]: 31.8%
- viability, T/C [32]: 31.6%
- viability, T/C [33]: 31.5%
- viability, T/C [34]: 22.9%
- viability, T/C [35]: 22.8%
- viability, T/C [36]: 24.4%

Compound: Cc1[nH]c2ccccc2c1CCNCc1ccc(/C=C/C(=O)NO)cc1 + CN(C)c1ccc(Nc2c3ccc(NC(=O)CCN4CCCC4)cc3nc3cc(NC(=O)CCN4CCCC4)ccc23)cc1
- IC50 (second compound 0.0316 µM): 58.1 nM
- IC50 (second compound 0.1 µM): 55.6 nM
- IC50 (second compound 0.316 µM): 58.8 nM
- IC50 (second compound 1 µM): 63.2 nM
- IC50 (second compound 3.16 µM): 58.3 nM
- IC50 (second compound 10 µM): 58.1 nM
- viability, T/C (second compound 0.0316 µM, first compound 0.000999 µM): 99.5%
- viability, T/C (second compound 0.0316 µM, first compound 0.00316 µM): 86.5%
- viability, T/C (second compound 0.0316 µM, first compound 0.00999 µM): 96.7%
- viability, T/C [1]: 92.6%
- viability, T/C (second compound 0.0316 µM, first compound 0.0999 µM): 12.1%
- viability, T/C [3]: 0.65%
- viability, T/C (second compound 0.1 µM, first compound 0.000999 µM): 115%
- viability, T/C (second compound 0.1 µM, first compound 0.00316 µM): 93.7%
- viability, T/C (second compound 0.1 µM, first compound 0.00999 µM): 80.6%
- viability, T/C [7]: 84.6%
- viability, T/C (second compound 0.1 µM, first compound 0.0999 µM): 14.9%
- viability, T/C [9]: 0.86%
- viability, T/C (second compound 0.316 µM, first compound 0.000999 µM): 76.5%
- viability, T/C (second compound 0.316 µM, first compound 0.00316 µM): 96.9%
- viability, T/C (second compound 0.316 µM, first compound 0.00999 µM): 91.7%
- viability, T/C [13]: 87.8%
- viability, T/C (second compound 0.316 µM, first compound 0.0999 µM): 17.7%
- viability, T/C [15]: 2.93%
- viability, T/C (second compound 1 µM, first compound 0.000999 µM): 86.3%
- viability, T/C (second compound 1 µM, first compound 0.00316 µM): 94.6%
- viability, T/C (second compound 1 µM, first compound 0.00999 µM): 87.4%
- viability, T/C [19]: 107%
- viability, T/C (second compound 1 µM, first compound 0.0999 µM): 21%
- viability, T/C [21]: 1.2%
- viability, T/C (second compound 3.16 µM, first compound 0.000999 µM): 93%
- viability, T/C (second compound 3.16 µM, first compound 0.00316 µM): 93%
- viability, T/C (second compound 3.16 µM, first compound 0.00999 µM): 96%
- viability, T/C [25]: 92%
- viability, T/C (second compound 3.16 µM, first compound 0.0999 µM): 13.1%
- viability, T/C [27]: 1.46%
- viability, T/C (second compound 10 µM, first compound 0.000999 µM): 82.8%
- viability, T/C (second compound 10 µM, first compound 0.00316 µM): 92.6%
- viability, T/C (second compound 10 µM, first compound 0.00999 µM): 97.2%
- viability, T/C [31]: 96.2%
- viability, T/C (second compound 10 µM, first compound 0.0999 µM): 12.4%
- viability, T/C [33]: 0.74%
